Laboratory results: ChEMBL document CHEMBL1201862, “PubChem BioAssay data set” (2004)
“And” between values parts separate entries of the source, which are not always exact repeats. Identical values can stand only once.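 Dose response: 5 concentrations. Exposure: 48 h. Format: 96-well plates. Endpoint: linear interpolation; highest concentration if not reached. GI50 = concentration required for 50% inhibition of growth.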 The source made the active and inactive calls. Rule as the data show it: active = GI50 up to about 1.1 µM and inactive = higher.

Assays:
Assay in all cases: NCI-60 cell line screen, 48 h
UO-31 = tested on: UO-31
CCRF-CEM = tested on: CCRF-CEM
SF-268 = tested on: SF-268
KM12 = tested on: KM12
LOX IMVI = tested on: LOX IMVI
NCI-H226 = tested on: NCI-H226
MDA-MB-231 = tested on: MDA-MB-231
HCT-116 = tested on: HCT-116
OVCAR-8 = tested on: OVCAR-8
HCC 2998 = tested on: HCC 2998
NCI-H23 = tested on: NCI-H23
NCI/ADR-RES = tested on: NCI/ADR-RES
MOLT-4 = tested on: MOLT-4
ACHN = tested on: ACHN
786-0 = tested on: 786-0
PC-3 = tested on: PC-3
K562 = tested on: K562
SN12C = tested on: SN12C
HCT-15 = tested on: HCT-15
SNB-75 = tested on: SNB-75

SMILES	GI50 (UO-31)	GI50 (CCRF-CEM)	GI50 (SF-268)	GI50 (KM12)	GI50 (LOX IMVI)	GI50 (NCI-H226)	GI50 (MDA-MB-231)	GI50 (HCT-116)	GI50 (OVCAR-8)	GI50 (HCC 2998)	GI50 (NCI-H23)	GI50 (NCI/ADR-RES)	GI50 (MOLT-4)	GI50 (ACHN)	GI50 (786-0)	GI50 (PC-3)	GI50 (K562)	GI50 (SN12C)	GI50 (HCT-15)	GI50 (SNB-75)
C=C(Cl)C(Cl)(CBr)CCC(Br)C(C)(C)Cl (stereo not given)	1.85 µM (inactive) and 6.27 µM (inactive) and 1.99 µM (inactive)	5.08 µM (inactive) and 12.5 µM (inactive) and 4.5 µM (inactive)	3.03 µM (inactive) and 735 nM (active) and 1.35 µM (inactive)	1.34 µM (inactive) and 2.32 µM (inactive) and 1.43 µM (inactive)	19.1 µM (inactive) and 5.7 µM (inactive) and 15.6 µM (inactive)	18.2 µM (inactive) and 17.5 µM (inactive) and 16 µM (inactive)	8.36 µM (inactive) and 1.22 µM (inactive) and 1.95 µM (inactive)	508 nM (active) and 1.95 µM (inactive) and 448 nM (active)	6.25 µM (inactive) and 2.03 µM (inactive) and 1.26 µM (inactive)	3.15 µM (inactive) and 2.61 µM (inactive) and 1.59 µM (inactive)	22.4 µM (inactive) and 16.3 µM (inactive) and 12 µM (inactive)	12 µM (inactive) and 2.44 µM (inactive) and 1.83 µM (inactive)	20.6 µM (inactive) and 10.1 µM (inactive) and 13.5 µM (inactive)	1.7 µM (inactive) and 1.18 µM (inactive) and 1.32 µM (inactive)	640 nM (active) and 175 nM (active) and 247 nM (active)	1.6 µM (inactive) and 904 nM (active) and 1 µM (active)	1.33 µM (inactive) and 14.4 µM (inactive) and 863 nM (active)	14.7 µM (inactive) and 4.2 µM (inactive) and 6.62 µM (inactive)	2.07 µM and 13.3 µM and 3.18 µM	1.64 µM (inactive) and 834 nM (active) and 416 nM (active)
CCOc1cc(CCNC)c2c(ccc3ccc(OC)c(O)c32)c1OC	15.6 µM (inactive)	14.9 µM (inactive)	18 µM (inactive)	11.9 µM (inactive)	11.5 µM (inactive)	17.9 µM (inactive)	13.4 µM (inactive)	10.4 µM (inactive)	13.6 µM (inactive)	15.5 µM (inactive)	11.7 µM (inactive)	19.2 µM (inactive)	5.82 µM (inactive)	13.6 µM (inactive)	17.5 µM (inactive)	13.2 µM (inactive)	17 µM (inactive)	16.1 µM (inactive)	17.5 µM	16 µM (inactive)
CCC(CC)C(=O)OC[n+]1cccc(-c2c(COC(=O)NC(C)C)c(COC(=O)NC(C)C)c3n2CCC3)c1	> 100 µM (inactive)	38.4 µM (inactive)	62.8 µM (inactive)	> 100 µM (inactive)	> 100 µM (inactive)	> 100 µM (inactive)	> 100 µM (inactive)	> 100 µM (inactive)	> 100 µM (inactive)	> 100 µM (inactive)	61.1 µM (inactive)	63.2 µM (inactive)	33.3 µM (inactive)	40.8 µM (inactive)	50 µM (inactive)	> 100 µM (inactive)	97.5 µM (inactive)	58.2 µM (inactive)	> 100 µM	> 100 µM (inactive)
Nc1ncnc2c1ncn2[C@H]1C=C[C@@H](NO)C1	> 100 µM (inactive)	> 100 µM (inactive)	> 100 µM (inactive)	> 100 µM (inactive)	> 100 µM (inactive)	> 100 µM (inactive)	> 100 µM (inactive)	> 100 µM (inactive)	> 100 µM (inactive)	> 100 µM (inactive)	> 100 µM (inactive)	> 100 µM (inactive)	> 100 µM (inactive)	> 100 µM (inactive)	> 100 µM (inactive)	> 100 µM (inactive)	> 100 µM (inactive)	> 100 µM (inactive)	> 100 µM	> 100 µM (inactive)
Cn1c(=O)nc2n(-c3ccc(Cl)cc3)c3cc(Cl)ccc3nc-2c1=O	11.4 µM (inactive)	5.82 µM (inactive)	3.08 µM (inactive)	5.52 µM (inactive)	2.03 µM (inactive)	25.8 µM (inactive)	3.17 µM (inactive)	3.92 µM (inactive)	2.72 µM (inactive)	4.49 µM (inactive)	3.33 µM (inactive)	8.51 µM (inactive)	3.61 µM (inactive)	12.6 µM (inactive)	10.5 µM (inactive)	9.42 µM (inactive)	2.37 µM (inactive)	6.21 µM (inactive)	1.82 µM	7.14 µM (inactive)
COC(=O)C1=C(C(=O)OC)N(c2ccncc2)C(c2ccco2)=CC1c1ccccc1[N+](=O)[O-] (stereo not given)	3.57 µM (inactive)	2.21 µM (inactive)	4.72 µM (inactive)	1.6 µM (inactive)	1.72 µM (inactive)	4.99 µM (inactive)	11.6 µM (inactive)	1.6 µM (inactive)	8.04 µM (inactive)	2.03 µM (inactive)	13.9 µM (inactive)	12.1 µM (inactive)	2.16 µM (inactive)	2.01 µM (inactive)	1.7 µM (inactive)	11.5 µM (inactive)	1.44 µM (inactive)	4.71 µM (inactive)	1.89 µM	5.64 µM (inactive)
